Laboratory results taken from patent publication US12227501B2, “3-amino-2-[2-(acylamino)pyridin-4-yl]-1,5,6,7-tetrahydro-4h-pyrrolo[3,2-c]pyridin-4-one as CSNK1 inhibitors” (Bayer Aktiengesellschaft, priority 2019, dated 2025).
Read-outs that look alike come from different tables or passages of the source.

How the values were obtained:
Assay type in all cases: biochemical
human CSNK1A1 [1] = molecular target: T1, human CSNK1A1 (Homo sapiens (Human), UniProt P48729); experiment: CSNK1A1 Assay 2 (ADP-Glo, 1 μM ATP); conditions: substrate biotin-Ahx-KRRRAL-pS-VASLPGL, read-out: CSNK1A1 Assay 2 IC50 [mol/l] (median)
Method in brief: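 Full-length human CSNK1A1 as an N-terminal GST fusion (baculovirus/insect cells) with biotinylated peptide substrate biotin-Ahx-KRRRAL-pS-VASLPGL and 1 μM ATP, in HEPES pH 7.5 buffer. Compounds were pre-incubated with enzyme (~0.0375 ng/μL) for 15 min at 22 °C. Generated ADP was read by ADP-Glo luminescence as the activity measure.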

human CSNK1A1 [2] = molecular target: T1, human CSNK1A1; experiment: CSNK1A1 High ATP Assay (ADP-Glo, 1 mM ATP); conditions: read-out: CSNK1A1 high ATP assay IC50 [mol/l] (median)
Method in brief: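 Kinase activity taken as ADP generated, quantified by ADP-Glo luminescence after 1 h ATP depletion and 1 h detection at 22 °C. Enzyme is GST–full-length human CSNK1A1 (insect cell-expressed), pre-bound to compound for 15 min, with phosphopeptide substrate and 1 mM ATP.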

[3] = molecular target: wild-type Epidermal Growth Factor Receptor (EGFR) (Homo sapiens (Human), UniProt P00533); experiment: WT-EGFR Kinase Assay (TR-FRET, 2 mM ATP)
human CSNK1D = human CSNK1D (Homo sapiens (Human), UniProt P48730); experiment: CSNK1D Assay (ADP-Glo, 1 μM ATP); conditions: read-out: CSNK1D IC50 [mol/l] (median)
Method in brief: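 Activity is read as ADP produced, by ADP-Glo luminescence after 1 h steps at 22 °C. The reaction uses 1 μM ATP, a biotinylated peptide and insect-cell-expressed GST–CSNK1D (about 0.5 ng/μL) in pH 7.5 HEPES buffer, with 15 min compound–enzyme preincubation.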

[4] = EGFR Wildtyp- 2 mM ATP IC50 [mol/l] (median)
[5] = read-out: EGFR Wildtyp- 2 mM ATP IC50 [mol/l] (median)

T1 sequence (P48729 whole entry, the tested form may be a part): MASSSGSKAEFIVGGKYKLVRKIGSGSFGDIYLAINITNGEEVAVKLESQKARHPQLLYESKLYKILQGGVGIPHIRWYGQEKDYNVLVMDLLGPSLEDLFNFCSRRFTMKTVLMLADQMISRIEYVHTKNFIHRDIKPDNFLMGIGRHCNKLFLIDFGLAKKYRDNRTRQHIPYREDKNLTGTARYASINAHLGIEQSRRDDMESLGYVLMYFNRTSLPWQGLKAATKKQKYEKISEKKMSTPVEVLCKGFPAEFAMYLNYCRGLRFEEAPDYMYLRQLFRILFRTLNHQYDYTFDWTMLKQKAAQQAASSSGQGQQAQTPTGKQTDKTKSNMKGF
Sequence of human CSNK1D (P48730 whole entry): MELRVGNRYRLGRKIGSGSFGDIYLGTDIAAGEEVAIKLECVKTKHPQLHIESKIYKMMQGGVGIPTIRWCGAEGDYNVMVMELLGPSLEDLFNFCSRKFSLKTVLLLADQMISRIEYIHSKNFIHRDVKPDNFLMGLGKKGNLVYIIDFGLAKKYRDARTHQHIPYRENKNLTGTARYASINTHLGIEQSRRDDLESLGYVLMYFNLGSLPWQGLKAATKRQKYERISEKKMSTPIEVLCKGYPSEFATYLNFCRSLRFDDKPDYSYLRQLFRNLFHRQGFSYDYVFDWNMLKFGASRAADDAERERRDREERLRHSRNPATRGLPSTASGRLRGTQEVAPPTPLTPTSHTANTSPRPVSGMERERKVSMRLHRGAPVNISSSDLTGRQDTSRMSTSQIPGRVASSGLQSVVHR
Sequence of wild-type Epidermal Growth Factor Receptor (EGFR) (P00533 669-1210): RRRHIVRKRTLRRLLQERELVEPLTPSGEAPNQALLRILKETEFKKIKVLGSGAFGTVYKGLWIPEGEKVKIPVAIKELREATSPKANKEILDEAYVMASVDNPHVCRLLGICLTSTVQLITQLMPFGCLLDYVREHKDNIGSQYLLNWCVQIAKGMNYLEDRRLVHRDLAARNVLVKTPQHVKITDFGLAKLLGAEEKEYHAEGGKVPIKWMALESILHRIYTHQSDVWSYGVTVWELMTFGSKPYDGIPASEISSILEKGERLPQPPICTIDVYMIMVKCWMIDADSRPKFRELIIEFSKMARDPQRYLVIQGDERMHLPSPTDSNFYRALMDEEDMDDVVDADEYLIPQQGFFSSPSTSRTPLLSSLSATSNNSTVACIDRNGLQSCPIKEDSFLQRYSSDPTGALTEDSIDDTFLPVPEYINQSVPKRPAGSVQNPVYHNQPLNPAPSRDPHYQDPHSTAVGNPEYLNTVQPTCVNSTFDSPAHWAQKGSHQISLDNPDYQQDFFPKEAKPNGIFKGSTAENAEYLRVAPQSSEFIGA

SMILES	IC50 (human CSNK1A1 [1])	IC50 (human CSNK1A1 [2])	IC50 [3, 4]	IC50 (human CSNK1D)	IC50 [3, 5]
CC1Cc2[nH]c(-c3ccnc(NC(=O)Cc4ccc(F)cc4)c3)c(Nc3ccccc3)c2C(=O)N1C (single isomer, unassigned; (-)) [Example 90, (−)-N-{4-[3-anilino-5,6-dimethyl-4-oxo-4,5,6,7-tetrahydro-1H-pyrrolo[3,2-c]pyridin-2-yl]pyridin-2-yl}-2-(4-fluorophenyl)acetamide]	1.43 nM	62.4 nM	561 nM	3.79 nM	
CC(C(=O)Nc1cc(-c2[nH]c3c(c2Nc2ccccc2)C(=O)N(C)C(C)C3)ccn1)c1ccc(F)cc1 (single isomer, unassigned; (-)) [Example 93, (−)-N-{4-[3-anilino-5,6-dimethyl-4-oxo-4,5,6,7-tetrahydro-1H-pyrrolo[3,2-c]pyridin-2-yl]pyridin-2-yl}-2-(4-fluorophenyl)propanamide]	47.2 nM	3180 nM	> 20000 nM	47.3 nM	
CC(C(=O)Nc1cc(-c2[nH]c3c(c2Nc2ccccc2)C(=O)N(C)C(C)C3)ccn1)c1ccc(F)cc1 (single isomer, unassigned; (-)) [Example 94, (−)-(2RS)—N-{4-[(6R*)-3-anilino-5,6-dimethyl-4-oxo-4,5,6,7-tetrahydro-1H-pyrrolo[3,2-c]pyridin-2-yl]pyridin-2-yl}-2-(4-fluorophenyl)propanamide]	4.33 nM	154 nM	4410 nM	7.02 nM	
CC(C(=O)Nc1cc(-c2[nH]c3c(c2Nc2ccccc2)C(=O)N(C)C(C)C3)ccn1)c1ccc(F)cc1 (single isomer, unassigned; (-)) [Example 95, (−)-N-{4-[3-anilino-5,6-dimethyl-4-oxo-4,5,6,7-tetrahydro-1H-pyrrolo[3,2-c]pyridin-2-yl]pyridin-2-yl}-2-(4-fluorophenyl)propanamide]	46.2 nM	2460 nM	6310 nM	45.3 nM	
CC1Cc2[nH]c(-c3ccnc(NC(=O)Cc4ccncc4)c3)c(Nc3ccccc3)c2C(=O)N1C (single isomer, unassigned; (-)) [Example 99, (−)-N-{4-[(6S*)-3-anilino-5,6-dimethyl-4-oxo-4,5,6,7-tetrahydro-1H-pyrrolo[3,2-c]pyridin-2-yl]pyridin-2-yl}-2-(pyridin-4-yl)acetamide]	3.78 nM	25.9 nM	329 nM	5.1 nM	
CC1Cc2[nH]c(-c3ccnc(NC(=O)Cc4ccc(F)cc4)c3)c(Nc3ccccc3F)c2C(=O)N1C (single isomer, unassigned; (-)) [Example 102, (−)-N-{4-[3-(2-fluoroanilino)-5,6-dimethyl-4-oxo-4,5,6,7-tetrahydro-1H-pyrrolo[3,2-c]pyridin-2-yl]pyridin-2-yl}-2-(4-fluorophenyl)acetamide]	3.6 nM	51 nM	2330 nM	7.21 nM	
CC1Cc2[nH]c(-c3ccnc(NC(=O)C(CC(F)F)c4ccc(F)cc4)c3)c(Nc3ccccc3F)c2C(=O)N1C (single isomer, unassigned; (-)) [Example 104, (−)-4,4-difluoro-N-{4-[3-(2-fluoroanilino)-5,6-dimethyl-4-oxo-4,5,6,7-tetrahydro-1H-pyrrolo[3,2-c]pyridin-2-yl]pyridin-2-yl}-2-(4-fluorophenyl)butanamide]	67.9 nM	4490 nM		60.5 nM	> 20000 nM
CC1Cc2[nH]c(-c3ccnc(NC(=O)C(CC(F)F)c4ccc(F)cc4)c3)c(Nc3ccccc3F)c2C(=O)N1C (single isomer, unassigned; (-)) [Example 106, (−)-(2RS)-4,4-difluoro-N-{4-[(6R*)-3-(2-fluoroanilino)-5,6-dimethyl-4-oxo-4,5,6,7-tetrahydro-1H-pyrrolo[3,2-c]pyridin-2-yl]pyridin-2-yl}-2-(4-fluorophenyl)butanamide]	17.8 nM	56.2 nM		22.3 nM	> 20000 nM
CC1Cc2[nH]c(-c3ccnc(NC(=O)C(CC(F)F)c4ccc(F)cc4)c3)c(Nc3ccccc3F)c2C(=O)N1C (single isomer, unassigned; (-)) [Example 107, (−)-4,4-difluoro-N-{4-[3-(2-fluoroanilino)-5,6-dimethyl-4-oxo-4,5,6,7-tetrahydro-1H-pyrrolo[3,2-c]pyridin-2-yl]pyridin-2-yl}-2-(4-fluorophenyl)butanamide]	45.7 nM	3160 nM		59.2 nM	> 20000 nM
CC1(C)Cc2[nH]c(-c3ccnc(NC(=O)C(CC(F)F)c4ccc(F)cc4)c3)c(Nc3cccc(F)c3Cl)c2C(=O)N1 (single isomer, unassigned; (-)) [Example 110, (−)-N-{4-[3-(2-chloro-3-fluoroanilino)-6,6-dimethyl-4-oxo-4,5,6,7-tetrahydro-1H-pyrrolo[3,2-c]pyridin-2-yl]pyridin-2-yl}-4,4-difluoro-2-(4-fluorophenyl)butanamide]	262 nM	> 20000 nM	4130 nM	249 nM	
CC1(C)Cc2[nH]c(-c3ccnc(NC(=O)C(CC(F)F)c4ccc(F)cc4)c3)c(Nc3cccc(F)c3)c2C(=O)N1 (single isomer, unassigned; enantiomer 1) [Example 120, 4,4-difluoro-N-{4-[3-(3-fluoroanilino)-6,6-dimethyl-4-oxo-4,5,6,7-tetrahydro-1H-pyrrolo[3,2-c]pyridin-2-yl]pyridin-2-yl}-2-(4-fluorophenyl)butanamide (Enantiomer 1)]	9.64 nM	477 nM	> 20000 nM	11 nM	
O=C1NC2(CCC2)Cc2[nH]c(-c3ccnc(NC(=O)C(CC(F)F)c4ccc(F)cc4)c3)c(Nc3cccc(F)c3Cl)c21 (single isomer, unassigned; enantiomer 1) [Example 124, (−)-N-{4-[3′-(2-chloro-3-fluoroanilino)-4′-oxo-1′,4′,5′,7′-tetrahydrospiro[cyclobutane-1,6′-pyrrolo[3,2-c]pyridin]-2′-yl]pyridin-2-yl}-4,4-difluoro-2-(4-fluorophenyl)butanamide (Enantiomer 1)]	74.6 nM	> 5710 nM	> 20000 nM	58.7 nM	
CC1(C)Cc2[nH]c(-c3ccnc(NC(=O)C(CC(F)F)c4ccc(F)cc4)c3)c(Nc3cccc(F)n3)c2C(=O)N1 (single isomer, unassigned; enantiomer 1) [Example 129, 4,4-difluoro-2-(4-fluorophenyl)-N-(4-{3-[(6-fluoropyridin-2-yl)amino]-6,6-dimethyl-4-oxo-4,5,6,7-tetrahydro-1H-pyrrolo[3,2-c]pyridin-2-yl}pyridin-2-yl)butanamide (Enantiomer 1)]	3.39 nM	6.37 nM	> 20000 nM	5.4 nM	
Cc1ccccc1Nc1c(-c2ccnc(NC(=O)C(C)c3ccc(F)cc3)c2)[nH]c2c1C(=O)NC(C)(C)C2 (single isomer, unassigned; enantiomer 1) [Example 133, (−)-N-{4-[6,6-dimethyl-3-(2-methylanilino)-4-oxo-4,5,6,7-tetrahydro-1H-pyrrolo[3,2-c]pyridin-2-yl]pyridin-2-yl}-2-(4-fluorophenyl)propanamide (Enantiomer 1)]	197 nM	> 5710 nM	405 nM	280 nM	
Cc1ccccc1Nc1c(-c2ccnc(NC(=O)C(CC(F)F)c3ccc(F)cc3)c2)[nH]c2c1C(=O)NC(C)(C)C2 (single isomer, unassigned; enantiomer 1) [Example 136, N-{4-[6,6-dimethyl-3-(2-methylanilino)-4-oxo-4,5,6,7-tetrahydro-1H-pyrrolo[3,2-c]pyridin-2-yl]pyridin-2-yl}-4,4-difluoro-2-(4-fluorophenyl)butanamide (Enantiomer 1)]	13.7 nM	45.6 nM	> 20000 nM	45.3 nM	
CC1(C)Cc2[nH]c(-c3ccnc(NC(=O)C(CN)c4ccc(F)cc4)c3)c(Nc3ccccc3)c2C(=O)N1 (single isomer, unassigned; enantiomer 1) [Example 140, 3-amino-N-[4-(3-anilino-6,6-dimethyl-4-oxo-4,5,6,7-tetrahydro-1H-pyrrolo[3,2-c]pyridin-2-yl)pyridin-2-yl]-2-(4-fluorophenyl)propanamide (Enantiomer 1)]	4.1 nM	56.9 nM	> 20000 nM	9.95 nM	
Cc1ccccc1Nc1c(-c2ccnc(NC(=O)C(CC(F)F)c3ccc(F)cc3)c2)[nH]c2c1C(=O)NC1(CCC1)C2 (single isomer, unassigned; enantiomer 1) [Example 144, (−)-4,4-difluoro-2-(4-fluorophenyl)-N-{4-[3′-(2-methylanilino)-4′-oxo-1′,4′,5′,7′-tetrahydrospiro[cyclobutane-1,6′-pyrrolo[3,2-c]pyridin]-2′-yl]pyridin-2-yl}butanamide-(Enantiomer 1)]	80.7 nM	5060 nM	> 20000 nM	82 nM	
